Results from patent US9783552B2, “Soluble guanylate cyclase activators” (MERCK SHARP & DOHME CORP., priority 2013, dated 2017).

Assays:
[1] = target: T1, sGC α1/β1 heterodimer (Homo sapiens, UniProt Q02108+Q02153); assay: Cell-Based sGC Functional Assay (CASA Assay); settings: CHO-K1/sGC cells; for EC50: intracellular cGMP by HTRF, 1 hr at 37° C., IP from 4P fit, presence or absence of 1 μM DETA-NO not given; for Emax: cGMP as percentage of maximum cGMP production of Compound A (=100% activation), read-out: % ACT (percent activation)
T1 construct: expressed in transfected cells
T1 sequence (Q02108 1-690): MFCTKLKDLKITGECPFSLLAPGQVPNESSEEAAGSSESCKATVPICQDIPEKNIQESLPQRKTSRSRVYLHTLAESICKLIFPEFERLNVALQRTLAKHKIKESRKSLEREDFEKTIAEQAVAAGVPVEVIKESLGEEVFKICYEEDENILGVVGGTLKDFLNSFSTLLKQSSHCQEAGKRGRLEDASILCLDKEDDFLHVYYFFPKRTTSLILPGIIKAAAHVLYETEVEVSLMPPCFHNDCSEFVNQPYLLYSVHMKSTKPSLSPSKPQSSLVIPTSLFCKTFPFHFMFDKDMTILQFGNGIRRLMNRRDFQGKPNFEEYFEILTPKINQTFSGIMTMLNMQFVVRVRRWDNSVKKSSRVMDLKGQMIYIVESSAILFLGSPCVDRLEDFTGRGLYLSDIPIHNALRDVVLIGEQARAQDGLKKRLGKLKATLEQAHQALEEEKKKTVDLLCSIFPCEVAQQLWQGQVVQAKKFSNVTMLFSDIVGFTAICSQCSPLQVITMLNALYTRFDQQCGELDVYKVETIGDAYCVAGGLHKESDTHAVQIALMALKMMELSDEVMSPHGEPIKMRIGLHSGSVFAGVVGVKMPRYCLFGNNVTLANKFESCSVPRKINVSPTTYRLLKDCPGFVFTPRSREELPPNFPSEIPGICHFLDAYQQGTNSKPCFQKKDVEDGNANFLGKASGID
T1 sequence (Q02153 1-619): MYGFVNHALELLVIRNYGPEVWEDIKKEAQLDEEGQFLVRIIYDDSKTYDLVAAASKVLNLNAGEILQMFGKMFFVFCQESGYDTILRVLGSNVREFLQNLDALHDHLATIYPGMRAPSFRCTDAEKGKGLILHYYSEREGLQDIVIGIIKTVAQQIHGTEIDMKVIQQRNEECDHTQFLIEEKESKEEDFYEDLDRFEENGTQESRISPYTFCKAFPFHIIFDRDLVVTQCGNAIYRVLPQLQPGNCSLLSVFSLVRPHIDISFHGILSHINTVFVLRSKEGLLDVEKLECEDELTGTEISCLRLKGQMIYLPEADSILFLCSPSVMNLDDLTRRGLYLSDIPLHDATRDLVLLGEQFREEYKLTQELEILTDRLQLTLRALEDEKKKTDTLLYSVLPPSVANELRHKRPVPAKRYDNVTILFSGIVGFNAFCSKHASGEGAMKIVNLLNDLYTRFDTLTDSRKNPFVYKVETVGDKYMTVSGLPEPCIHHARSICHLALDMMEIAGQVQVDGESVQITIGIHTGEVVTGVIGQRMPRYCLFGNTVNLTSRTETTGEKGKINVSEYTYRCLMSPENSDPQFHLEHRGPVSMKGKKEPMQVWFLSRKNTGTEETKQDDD
Procedure, shortened: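 CHO-K1 cells stably expressing human sGC α1/β1 were incubated with compound (2.5% DMSO) for 1 hr at 37 °C with 0.5 mM IBMX, with or without 1 μM DETA-NO. Intracellular cGMP was measured by HTRF and expressed as % of the maximal cGMP produced by a reference sGC heme-dependent activator. IP and maximum fold induction came from a 4-parameter fit.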

[2] = test system: Spontaneously hypertensive rats (SHR); assay: Acute Efficacy in Spontaneously Hypertensive Rats (SHR); format: in vivo, rat; settings: single oral gavage
Excerpt: Acute Efficacy in Spontaneously Hypertensive Rats (SHR)
Spontaneously hypertensive rats (SHR, male, Charles River) were implanted with DSI TA 11PA-C40 telemetry device (Data Sciences, Inc., St. Paul, Minn.) under isoflurane or ketamine/metomidine anesthesia. The telemetry unit catheter was inserted into the descending aorta via the femoral artery and the telemetry device was implanted subcutaneously in the left flank area. Animals were allowed to recover from surgery for 14 days before the start of any studies. Blood pressure, heart rate, and activity signals from conscious, freely moving rats were recorded continuously for 30 seconds every 10 min. On the day prior to administration of compound, a single oral dose of vehicle (10% transcutol/20% Cremophor/70% water) was administered to all animals to establish baseline control data. The blood pressure lowering efficacy of compound (PO) or vehicle was evaluated following a single oral gavage. Data were collected as hourly averages, and changes in blood pressure were calculated by subtracting control baseline data on an hourly basis. Animals were maintained on normal diet with a 12 h light-dark cycle.
Maximum peak decreases of systolic blood pressure (SBP) in SHR at a particular P.O. dose (mpk milligrams per kilogram) for the following Example compounds are provided. Category A=SBP in SHRs<25 mmHg; Category B=SBP in SHRs 25-40 mmHg; Category C=SBP in SHRs>40 mmHg.

| EC50 [1] | Emax [1] | SMILES | Maximum peak decrease of systolic blood pressure (SBP) in SHR, Category ([2]; Dose 0.3 mpk P.O.) | Maximum peak decrease of systolic blood pressure (SBP) in SHR, Category ([2]; Dose 3 mpk P.O.) | Maximum peak decrease of systolic blood pressure (SBP) in SHR, Category ([2]; Dose 1 mpk P.O.) |
| --- | --- | --- | --- | --- | --- |
| 190 nM | 132% | Cn1ncc2c(-c3nc(N)c4c(n3)NC(=O)C4(C)C(=O)NC3CC3)nc(CCC(F)(F)C(F)(F)F)nc21 (single isomer, unassigned) [Example 31, 4-Amino-N-cyclopropyl-5-methyl-2-(1-methyl-6-(3,3,4,4,4-pentafluorobutyl)-1H-pyrazolo[3,4-d]pyrimidin-4-yl)-6-oxo-6,7-dihydro-5H-pyrrolo[2,3-d]pyrimidine-5-carboxamide] | B (Category B=SBP in SHRs 25-40 mmHg) |  |  |
| 130 nM | 108% | Cn1ncc2c(-c3nc(N)c4c(n3)NC(=O)C4(C)c3ccccc3)nc(CCC(F)(F)F)nc21 (single isomer, unassigned) [Example 4, 4-Amino-5-methyl-2-(1-methyl-6-(3,3,3-trifluoropropyl)-1H-pyrazolo[3,4-d]pyrimidin-4-yl)-5-phenyl-5H-pyrrolo[2,3-d]pyrimidin-6(7H)-one] |  | C (Category C=SBP in SHRs>40 mmHg) |  |
| 52 nM | 131% | [2H]C([2H])([2H])n1ncc2c(-c3nc(N)c4c(n3)NC(=O)C4(C)C(=O)NC3CC3)nc(CCC(F)(F)C(F)(F)F)nc21 (single isomer, unassigned) [Example 32, 4-Amino-N-cyclopropyl-5-methyl-2-(6-(3,3,4,4,4-pentafluorobutyl)-1-trideuteriomethyl-1H-pyrazolo[3,4-d]pyrimidin-4-yl)-6-oxo-6,7-dihydro-5H-pyrrolo[2,3-d]pyrimidine-5-carboxamide] |  |  | A (Category A=SBP in SHRs<25 mmHg) |
| 40 nM | 101% | Cn1ncc2c(-c3nc(N)c4c(n3)NC(=O)C4(C)c3ccccc3)nc(CCC(F)(F)C(F)(F)F)nc21 (single isomer, unassigned) [Example 1, 4-Amino-5-methyl-2-(1-methyl-6-(3,3,4,4,4-pentafluorobutyl)-1H-pyrazolo[3,4-d]pyrimidin-4-yl)-5-phenyl-5H-pyrrolo[2,3-d]pyrimidin-6(7H)-one] |  |  | C (Category C=SBP in SHRs>40 mmHg) |
| 429 nM | 97% | [2H]C([2H])([2H])n1nnc2c(-c3nc(N)c4c(n3)NC(=O)C4(C)c3ccc(Cl)cc3F)nc(CCC(F)(F)C(F)(F)F)nc21 (single isomer, unassigned) [Example 73, 4-Amino-5-(4-chloro-2-fluorophenyl)-5-methyl-2-(5-(3,3,4,4,4-pentafluorobutyl-3-trideuteriomethyl)-3H-[1,2,3]triazolo[4,5-d]pyrimidin-7-yl)-5H-pyrrolo[2,3-d]pyrimidin-6(7H)-one] |  | A (Category A=SBP in SHRs<25 mmHg) |  |
| 285 nM | 75% | [2H]C([2H])([2H])n1ncc2c(-c3nc(N)c4c(n3)NC(=O)C4(C)C)nc(CCC(F)(F)C(F)(F)F)nc21 [Example 12, 4-Amino-5,5-dimethyl-2-(6-(3,3,4,4,4-pentafluorobutyl)-1-trideuteriomethyl-1H-pyrazolo[3,4-d]pyrimidin-4-yl)-5H-pyrrolo[2,3-d]pyrimidin-6(7H)-one] |  |  | B (Category B=SBP in SHRs 25-40 mmHg) |
| 61 nM | 91% | Cn1ccc2c(-c3nc(N)c4c(n3)NC(=O)C4(C)c3ccc(F)cc3)nc(CCC(F)(F)C(F)(F)F)nc21 (single isomer, unassigned) [Example 61, 4-Amino-5-(4-fluorophenyl)-5,7′-dimethyl-2′-(3,3,4,4,4-pentafluorobutyl)-5H,7′H-[2,4′-bipyrrolo[2,3-d]pyrimidin]-6(7H)-one] |  |  | A (Category A=SBP in SHRs<25 mmHg) |
| 46 nM | 110% | Cn1ncc2c(-c3nc(N)c4c(n3)NC(=O)C4(C)c3ccc(F)cc3)nc(CCC(F)(F)C(F)(F)F)nc21 (single isomer, unassigned) [Example 9, 4-Amino-5-(4-fluorophenyl)-5-methyl-2-(1-methyl-6-(3,3,4,4,4-pentafluorobutyl)-1H-pyrazolo[3,4-d]pyrimidin-4-yl)-5H-pyrrolo[2,3-d]pyrimidin-6(7H)-one] |  |  | C (Category C=SBP in SHRs>40 mmHg) |
| 157 nM | 127% | Cn1ncc2c(-c3nc(N)c4c(n3)NC(=O)C4(C)c3ccc(F)cc3)nc(Cc3cccc(F)c3F)nc21 (single isomer, unassigned) [Example 6, 4-Amino-2-(6-(2,3-difluorobenzyl)-1-methyl-1H-pyrazolo[3,4-d]pyrimidin-4-yl)-5-(4-fluorophenyl)-5-methyl-5H-pyrrolo[2,3-d]pyrimidin-6(7H)-one] |  | A (Category A=SBP in SHRs<25 mmHg) |  |
| 85 nM | 110% | CCn1ncc2c(-c3nc(N)c4c(n3)NC(=O)C4(C)c3ccccc3)nc(CCC(F)(F)C(F)(F)F)nc21 (single isomer, unassigned) [Example 7, 4-Amino-2-(1-ethyl-6-(3,3,4,4,4-pentafluorobutyl)-1H-pyrazolo[3,4-d]pyrimidin-4-yl)-5-methyl-5-phenyl-5H-pyrrolo[2,3-d]pyrimidin-6(7H)-one] |  | B (Category B=SBP in SHRs 25-40 mmHg) |  |
| 1070 nM | 114% | [2H]C([2H])([2H])n1nnc2c(-c3nc(N)c4c(n3)NC(=O)C4(C)c3ccc(F)cc3)nc(CCC(F)(F)C(F)(F)F)nc21 (single isomer, unassigned) [Example 67, 4-Amino-5-(4-fluorophenyl)-5-methyl-2-(5-(3,3,4,4,4-pentafluorobutyl-3-trideuteriomethyl)-3H-[1,2,3]triazolo[4,5-d]pyrimidin-7-yl)-5H-pyrrolo[2,3-d]pyrimidin-6(7H)-one] |  |  | A (Category A=SBP in SHRs<25 mmHg) |
| 594 nM | 67% | [2H]C([2H])([2H])n1nnc2c(-c3nc(N)c4c(n3)NC(=O)C4(C)c3ccc(OC)cc3)nc(CCC(F)(F)C(F)(F)F)nc21 (single isomer, unassigned) [Example 71, 4-Amino-5-(4-methoxyphenyl)-5-methyl-2-(5-(3,3,4,4,4-pentafluorobutyl-3-trideuteriomethyl)-3H-[1,2,3]triazolo[4,5-d]pyrimidin-7-yl)-5H-pyrrolo[2,3-d]pyrimidin-6(7H)-one] |  |  | A (Category A=SBP in SHRs<25 mmHg) |
